The subject of test [1] is collagen-induced rheumatoid arthritis in rats. The test can be described thus: Collagen-induced rat rheumatoid arthritis model. The conditions noted are these: SMI0 75, 37.5 and 18.75 mg/kg ig once daily, day 21, vs model group. It counts as in vivo, SD rat. The method, then: Experimental method: A collagen emulsion was used to construct an SD rat rheumatoid arthritis model. 50 rats successfully modeled were randomly divided into five groups: model group (normal saline (NS), 0.5 mL/kg, i.g.); positive control group (celecoxib, 5 mg/kg, i.g.); SMI0 low-dose group (18.75 mg/kg, i.g.); SMI0 medium-dose group (37.5 mg/kg, i.g.); and SMI0 high-dose group (75 mg/kg, i.g.). The rats each were administered once every day starting from the first day after successful modeling. A thickness of each of the left and right hindfeet and the left and right forefeet of rats was measured every day by a vernier caliper, and a volume of each of the left and right hindfeet of rats was measured by a rat foot swelling measuring instrument (which was measured every 12 h in the first 3 days). A foot swelling rate of each rat was calculated according to a change of a hindfoot volume of the rat relative to a hindfoot volume of the rat before the modeling at each time point, and a difference in foot swelling rate between groups of rats was analyzed. After the successful modeling, blood was collected from the orbit on day 7; rats were sacrificed on day 20, blood was collected, and serum was isolated; and tissues such as ankles, toe joints, spleens, and livers were collected. […]

Test [2] relates to A549 lung cancer cells / M2 macrophages. Briefly: Proliferation of A549 cells co-cultivated with M2 macrophages (conditional media, CCK8). It counts as cell-based, human. The following applies: SMI0 50 μmol/L during M2 induction, vs M2 macrophage co-cultivation group, P<0.05. The method, then: Experimental method: PMA was used at […] to induce the transformation of human monocytic leukemia cells THP-1 into MO macrophages, and then IL-4 and IL-13 were used at 20 ng/mL to induce the transformation of MO macrophages into M2 macrophages. A supernatant was collected to establish a co-cultivation system with an A549 lung cancer cell, thereby simulating a M2-type macrophage microenvironment of lung cancer. In the SMI0 intervention group, SMI0 (50 μmol/L) was added for intervention while interleukin was added for induction. Culture supernatants of the MO macrophages, M2 macrophages, and SMI0 intervention group were collected to prepare conditional media. […] cells/mL, then 100 μL of each of different conditional media was added to each well, and 24 h later, 10 μL of a CCK8 reagent was added to each well; and the cells were further cultivated for 2 h, and an absorbance OD value of each well was determined at 450 nm by a microplate reader. 3 replicates were set for each well, and an average was taken. The proliferation activity was calculated based on the OD value.

Test [3] relates to HepG2 liver cancer cells. Briefly: Direct effect on HepG2 liver cancer cells. It counts as cell-based. The conditions noted are these: up to 100 μmol/L, 24 h. The method, then: Experimental method: HepG2 liver cancer cells and H22 liver cancer cells in a logarithmic growth phase each were selected and inoculated into a 96-well plate at a concentration of 1*10^5 cells/mL, and then 100 μL of a basic medium including SMI0 at different concentrations (0 μmol/L, 0.16 μmol/L, 0.8 μmol/L, 4 μmol/L, 20 μmol/L, and 100 μmol/L) was added to each well; and 24 h later, the proliferation activity of HepG2 was determined by a CCK8 method, a migration ability of HepG2 was determined by wound-healing assay, and an apoptosis ability of HepG2 was determined by flow cytometry (FCM).

Test [4] relates to ovarian cancer ID-8 cell line in situ transplanted tumor. Briefly: Mouse ovarian cancer in situ transplanted tumor model (ID-8). Type of test: in vivo, C57/6 mouse. The conditions noted are these: as high as; SMI0 30 mg/kg ig daily, 60-day modeling. The method, then:
Experimental method: A female C57/6 mouse ovarian cancer in situ transplanted tumor model was constructed with a murine ovarian cancer ID-8 cell line at a cell concentration of 1×10^6. A model group and an SMI0 intervention group were set for the experiment. The intervention group was intragastrically administered with the SMI0 compound at 30 mg/kg every day from three days before modeling to the end of the 60-day modeling (model group, n=15; and SMI0 compound (30 mg/kg) group, n=12). At the end of the experiment, blood was collected from the orbit, a body weight was measured, then the mice each were sacrificed, and ovary tissues and tumor tissues were collected. Ovary tissue specimens were subjected to HE staining, and then the ovary tumor tissue and tumorigenesis of mice in each group were observed.

The test system of test [5] is DEN-induced rat liver damage. The test can be described thus: DEN-induced rat liver damage model. Type of test: in vivo, SD rat. The following applies: plasma, vs model group. The method, then: Experimental method: An SD rat liver damage model was constructed through intermittent intraperitoneal injection of DEN. A model group was injected intraperitoneally with DEN at 50 mg/kg twice a week in the first 4 weeks and then once a week in the 5th to 8th weeks. An SMI0 intervention group, which was injected with DEN at the amount and the way the same as that in the model group, was divided into SMI0+DEN low-dose and high-dose groups and an SMI0 high-dose continuous administration group, where the SMI0+DEN low-dose and high-dose groups were intragastrically administered with the compound SMI0 at 30 mg/kg and 150 mg/kg 5 min before DEN administration each time, respectively; and the SMI0 high-dose continuous administration group was intragastrically administered with the compound SMI0 at 150 mg/kg every day from the 1st week to the 8th week. At the end of molding, blood was collected from the orbit, and plasma liver function indexes of rats were determined by an automatic biochemical analyzer (model group, n=10 rats; SMI0 compound low-dose group, n=21 rats; (150 mg/kg)^a, SMI0 compound+DEN high-dose group, n=28 rats; and (150 mg/kg)^b, SMI0 compound high-dose continuous administration group, n=24 rats].

For test [6], the system named is ovarian cancer ID8 cell line abdominal transplanted tumor. Briefly: Mouse ovarian cancer abdominal transplanted tumor model (ID8). The conditions noted are these: SMI0 30 mg/kg ig daily, 30-day modeling. Type of test: in vivo, C57/6 mouse. As to the method: Experimental method: A female C57/6 mouse ovarian cancer abdominal transplanted tumor model was constructed with an ovarian cancer murine ID8 cell line at a cell concentration of 2.5×10^6. A model group and an SMI0 intervention group were set for the experiment. The intervention group was intragastrically administered with the SMI0 compound at 30 mg/kg every day from three days before modeling to the end of the 30-day modeling (model group, n=10 mice; and SMI0 compound (30 mg/kg) group, n=11 mice). At the end of the experiment, blood was collected from the orbit, a body weight was measured, then the mice each were sacrificed, and ovary tissues were collected. Ovary tissue specimens were subjected to HE staining, and then the ovary tissue lesion and tumorigenesis of mice in each group were observed.

[7] abbreviates: SMI0 intervention group, 8 weeks.

We go through 1 molecule from US20230277508A1, “USE OF COMPOUND AS CYP2E1 INHIBITOR” (SHANGHAI LING XI BIOTECHNOLOGY DEVELOPMENT CO., LTD., priority 2020, published 2023).

In the case of `CC(=O)c1scnc1C` [SMI0], in test [1], the foot swelling degrees entry is given as “significantly reduced”. In addition, the “proliferation activity of A549 cells” value in test [2] was “significantly weakened”. For the same molecule, in test [3], the “effect on the proliferation, migration, and apoptosis of HepG2 liver cancer cells” value is listed as “no significant inhibitory effect”. In addition, in test [4], the “ascites weight inhibition rate” value is listed as 76.40% and the “tumor proliferation inhibition rate” value is given as 63.14%. Also, the “albumin (ALB2) level” value in test [5] (SMI0 intervention group (30, 150 mg/kg ig before DEN; 150 mg/kg daily), 8 weeks) is “significantly increased”. Besides, in test [5] (setting [7]), the “alanine aminotransferase (ALTL) level” value is given as “significantly reduced”, the “alkaline phosphatase (ALP) (ALP2S) level” value is “significantly reduced”, the “cholinesterase (CHE2) level” value is “significantly increased” and the “direct bilirubin (BILD2) level” value was “significantly reduced”. Moreover, in test [5] (setting [7]), the “glutamyl transpeptidase (GGTI2) level” value is “significantly reduced” and the “total bilirubin (BILT3) level” value is “significantly reduced”. Further, in test [5] (SMI0 low-dose group (30 mg/kg ig)), the TP2 level entry was “significantly increased”. Also, in test [6], the “inhibition rate for the ascites weight” value is 83.78%. In test [6] (vs model group), the ascites volume entry was “significantly reduced” and the “body weight of mice” value was “significantly reduced”. For the same molecule, the “inhibition rate for tumor proliferation of the greater momentum” value in test [6] (as high as) is on record as 58.70%.
